This is an account of results in US12180197B2, “GLP-1R modulating compounds” (Gilead Sciences, Inc., priority 2021, dated 2024).

The experiment deals with GLP-1R (Homo sapiens, UniProt P43220). In words: GLP-1R Activation - cAMP Assay 1. The format is cell-based. The note with it: cAMP increase in CHO cells stably expressing GLP-1R; 30 minutes incubation; 10 point dose response. As to the method: GLP-1R Activation—cAMP Assay 1
GLP-1R, sequence (P43220 24-463): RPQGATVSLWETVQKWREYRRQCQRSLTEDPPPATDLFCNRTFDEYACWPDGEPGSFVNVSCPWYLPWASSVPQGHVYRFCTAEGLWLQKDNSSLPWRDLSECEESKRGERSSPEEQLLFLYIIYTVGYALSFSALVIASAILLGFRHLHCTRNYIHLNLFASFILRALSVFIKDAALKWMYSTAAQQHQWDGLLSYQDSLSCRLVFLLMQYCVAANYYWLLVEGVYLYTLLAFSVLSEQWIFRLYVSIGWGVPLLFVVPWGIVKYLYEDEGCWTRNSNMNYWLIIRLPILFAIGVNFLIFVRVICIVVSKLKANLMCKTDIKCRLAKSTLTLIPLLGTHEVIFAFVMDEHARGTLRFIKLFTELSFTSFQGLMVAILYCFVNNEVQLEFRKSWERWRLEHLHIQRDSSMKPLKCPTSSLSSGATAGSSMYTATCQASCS
GLP-1R activation by a compound of the present disclosure was quantified by measuring cAMP increase in CHO cells stably expressing GLP-1R (MultiSpan product #C1267-1a). The cells were harvested and plated in growth medium (DMEM/F-12 (Corning product #10-090-CV) supplemented with 10% FBS (HyClone product #SH30071-03), penicillin/streptomycin (Corning product #30-002CI) and 10 µg/ml puromycin (Gibco product #A11138-03)) at 1,000 cells/well in a 384-well plate (Greiner product #781080). The cells were then incubated overnight at 37° C., 5% CO2. The next day, the medium was removed and the cells were washed with DPBS (Corning product #21-031-CM) before adding the assay medium (HBSS, Corning product #21-023-CV) with 20 mM Hepes (Gibco product #15630-080) and 0.1% BSA (Rockland Immunochemicals product #BSA-1000)). Following the medium change, the cells were incubated for 1 hour at 37° C., 5% CO2. The tested GLP-1 compound was added to the cells in a 10 point dose response followed by a 30 minutes incubation at 37° C., 5% CO2. cAMP concentration increase was then detected using Cisbio's cAMP Gs Dynamic Kit (product #62AM4PEC) according to the manufacturer's protocol. The response was plotted against the log of the agonist concentration and fitted to a sigmoidal equation to determine the EC50.
As to `COCCn1c(CN2CCC(c3cccc(OCc4ccc5ccncc5c4)n3)CC2)nc2ccc(C(=O)O)cc21` [Example 35, 2-((4-(6-(isoquinolin-7-ylmethoxy)pyridin-2-yl)piperidin-1-yl)methyl)-1-(2-methoxyethyl)-1H-benzo[d]imidazole-6-carboxylic acid], a half-maximal effect (EC50) was put at 48.5 nM.
With `COCCn1c(CN2CCC(c3cccc(OCc4ccc(C5CC5)cc4)n3)CC2)nc2ccc(C(=O)O)cc21` [Example 38, 2-((4-(6-((4-cyclopropylbenzyl)oxy)pyridin-2-yl)piperidin-1-yl)methyl)-1-(2-methoxyethyl)-1H-benzo[d]imidazole-6-carboxylic acid] the figure was 58.3 nM; with `COCCn1c(CN2CCC(c3cccc(OCc4c(F)c(F)c(F)c(F)c4F)n3)CC2)nc2ccc(C(=O)O)cc21` [Example 14, 1-(2-methoxyethyl)-2-((4-(6-((perfluorophenyl)methoxy)pyridin-2-yl)piperidin-1-yl)methyl)-1H-benzo[d]imidazole-6-carboxylic acid], greater than 100 nM.
Next, `COCCn1c(CN2CCC(c3cccc(OCc4ccc5cnccc5c4)n3)CC2)nc2ccc(C(=O)O)cc21` [Example 26, 2-[[4-[6-(6-isoquinolylmethoxy)-2-pyridyl]-1-piperidyl]methyl]-3-(2-methoxyethyl)benzimidazole-5-carboxylic acid]: 41.3 nM; `COCCn1c(CN2CCC(c3cccc(OCc4ccc5ncsc5c4)n3)CC2)nc2ccc(C(=O)O)cc21` [Example 28, 2-((4-(6-(benzo[d]thiazol-6-ylmethoxy)pyridin-2-yl)piperidin-1-yl)methyl)-1-(2-methoxyethyl)-1H-benzo[d]imidazole-6-carboxylic acid]: 60.8 nM; `COCCn1c(CN2CCC(c3cccc(OCc4ccc(C(C)(C)O)cc4)n3)CC2)nc2ccc(C(=O)O)cc21` [Example 29, 2-((4-(6-((4-(2-hydroxypropan-2-yl)benzyl)oxy)pyridin-2-yl)piperidin-1-yl)methyl)-1-(2-methoxyethyl)-1H-benzo[d]imidazole-6-carboxylic acid]: 1440 nM.
With `COCCn1c(CN2CCC(c3cccc(OCc4ccc(COC)cc4)n3)CC2)nc2ccc(C(=O)O)cc21` [Example 30, 1-(2-methoxyethyl)-2-((4-(6-((4-(methoxymethyl)benzyl)oxy)pyridin-2-yl)piperidin-1-yl)methyl)-1H-benzo[d]imidazole-6-carboxylic acid] the figure was 297 nM.
As to `C#Cc1ccc(COc2cccc(C3CCN(Cc4nc5ccc(C(=O)O)cc5n4CCOC)CC3)n2)cc1` [Example 13, 2-((4-(6-((4-ethynylbenzyl)oxy)pyridin-2-yl)piperidin-1-yl)methyl)-1-(2-methoxyethyl)-1H-benzo[d]imidazole-6-carboxylic acid], the EC50 (commonly the concentration at which the effect is half-maximal) is 22.2 nM.
Next, `COCCn1c(CN2CCC(c3cccc(OCc4ccc(C(=O)N(C)C)cc4F)n3)CC2)nc2ccc(C(=O)O)cc21` [Example 11, 2-((4-(6-((4-(dimethylcarbamoyl)-2-fluorobenzyl)oxy)pyridin-2-yl)piperidin-1-yl)methyl)-1-(2-methoxyethyl)-1H-benzo[d]imidazole-6-carboxylic acid]: 9910 nM; `COCCn1c(CN2CCC(c3cccc(OCc4ccc(S(C)(=O)=O)cc4)n3)CC2)nc2ccc(C(=O)O)cc21` [Example 9, 1-(2-methoxyethyl)-2-((4-(6-((4-(methylsulfonyl)benzyl)oxy)pyridin-2-yl)piperidin-1-yl)methyl)-1H-benzo[d]imidazole-6-carboxylic acid]: 1190 nM; `COCCn1c(CN2CCC(c3cccc(OCc4ccc(Cl)c5ccccc45)n3)CC2)nc2ccc(C(=O)O)cc21` [Example 4, 2-((4-(6-((4-chloronaphthalen-1-yl)methoxy)pyridin-2-yl)piperidin-1-yl)methyl)-1-(2-methoxyethyl)-1H-benzo[d]imidazole-6-carboxylic acid]: 39.9 nM.
Next, `COCCn1c(CN2CCC(c3cccc(OCc4c(F)cc(C(N)=O)cc4F)n3)CC2)nc2ccc(C(=O)O)cc21` [Example 37, 2-((4-(6-((4-carbamoyl-2,6-difluorobenzyl)oxy)pyridin-2-yl)piperidin-1-yl)methyl)-1-(2-methoxyethyl)-1H-benzo[d]imidazole-6-carboxylic acid]: 2200 nM.
With `COCCn1c(CN2CCC(c3cccc(OCc4cccc5c4OC(F)(F)O5)n3)CC2)nc2ccc(C(=O)O)cc21` [Example 1, 2-((4-(6-((2,2-difluorobenzo[d][1,3]dioxol-4-yl)methoxy)pyridin-2-yl)piperidin-1-yl)methyl)-1-(2-methoxyethyl)-1H-benzo[d]imidazole-6-carboxylic acid] the figure was 28.5 nM; with `COCCn1c(CN2CCC(c3cccc(OCc4ccc5c(c4)COC5=O)n3)CC2)nc2ccc(C(=O)O)cc21` [Example 43, 1-(2-Methoxyethyl)-2-((4-(6-((1-oxo-1,3-dihydroisobenzofuran-5-yl)methoxy)pyridin-2-yl)piperidin-1-yl)methyl)-1H-benzo[d]imidazole-6-carboxylic acid], 345 nM.
`COCCn1c(CN2CCC(c3cccc(OCc4ccc(C#N)c5cccnc45)n3)CC2)nc2ccc(C(=O)O)cc21` [Example 42, 2-((4-(6-((5-cyanoquinolin-8-yl)methoxy)pyridin-2-yl)piperidin-1-yl)methyl)-1-(2-methoxyethyl)-1H-benzo[d]imidazole-6-carboxylic acid] gave an EC50 of 6.6 nM.
Next, `COCCn1c(CN2CCC(c3cccc(OCc4ccc5c(c4)C(=O)OC5)n3)CC2)nc2ccc(C(=O)O)cc21` [Example 44, 1-(2-methoxyethyl)-2-((4-(6-((3-oxo-1,3-dihydroisobenzofuran-5-yl)methoxy)pyridin-2-yl)piperidin-1-yl)methyl)-1H-benzo[d]imidazole-6-carboxylic acid]: 109 nM; `COCCn1c(CN2CCC(c3cccc(OCc4ccc(C(O)(C(F)(F)F)C(F)(F)F)cc4)n3)CC2)nc2ccc(C(=O)O)cc21` [Example 2, 2-((4-(6-((4-(1,1,1,3,3,3-hexafluoro-2-hydroxypropan-2-yl)benzyl)oxy)pyridin-2-yl)piperidin-1-yl)methyl)-1-(2-methoxyethyl)-1H-benzo[d]imidazole-6-carboxylic acid]: 1260 nM.
`COCCn1c(CN2CCC(c3cccc(OCc4cccc5ccccc45)n3)CC2)nc2ccc(C(=O)O)cc21` [Example 5, 1-(2-methoxyethyl)-2-((4-(6-(naphthalen-1-ylmethoxy)pyridin-2-yl)piperidin-1-yl)methyl)-1H-benzo[d]imidazole-6-carboxylic acid] returned an EC50 of 50.6 nM.
Next, `COCCn1c(CN2CCC(c3cccc(OCc4cccc5occc45)n3)CC2)nc2ccc(C(=O)O)cc21` [Example 32, 2-((4-(6-(benzofuran-4-ylmethoxy)pyridin-2-yl)piperidin-1-yl)methyl)-1-(2-methoxyethyl)-1H-benzo[d]imidazole-6-carboxylic acid]: 261 nM; `COCCn1c(CN2CCC(c3cccc(OCc4cccc5scnc45)n3)CC2)nc2ccc(C(=O)O)cc21` [Example 34, 2-((4-(6-(benzo[d]thiazol-4-ylmethoxy)pyridin-2-yl)piperidin-1-yl)methyl)-1-(2-methoxyethyl)-1H-benzo[d]imidazole-6-carboxylic acid]: 19.8 nM.
